Paper PMC12163657 (ACS Omega, 2025)

Tests used:
[1] = Single-dose pharmacokinetics, dog; assay type: in vivo; settings: Beagle, serum, 10 mg/kg
BCRP = molecular target: T1, BCRP (Homo sapiens, UniProt Q9UNQ0); test: BCRP inhibition, membrane vesicles; assay type: in vitro ADME
T1 sequence (Q9UNQ0 1-655): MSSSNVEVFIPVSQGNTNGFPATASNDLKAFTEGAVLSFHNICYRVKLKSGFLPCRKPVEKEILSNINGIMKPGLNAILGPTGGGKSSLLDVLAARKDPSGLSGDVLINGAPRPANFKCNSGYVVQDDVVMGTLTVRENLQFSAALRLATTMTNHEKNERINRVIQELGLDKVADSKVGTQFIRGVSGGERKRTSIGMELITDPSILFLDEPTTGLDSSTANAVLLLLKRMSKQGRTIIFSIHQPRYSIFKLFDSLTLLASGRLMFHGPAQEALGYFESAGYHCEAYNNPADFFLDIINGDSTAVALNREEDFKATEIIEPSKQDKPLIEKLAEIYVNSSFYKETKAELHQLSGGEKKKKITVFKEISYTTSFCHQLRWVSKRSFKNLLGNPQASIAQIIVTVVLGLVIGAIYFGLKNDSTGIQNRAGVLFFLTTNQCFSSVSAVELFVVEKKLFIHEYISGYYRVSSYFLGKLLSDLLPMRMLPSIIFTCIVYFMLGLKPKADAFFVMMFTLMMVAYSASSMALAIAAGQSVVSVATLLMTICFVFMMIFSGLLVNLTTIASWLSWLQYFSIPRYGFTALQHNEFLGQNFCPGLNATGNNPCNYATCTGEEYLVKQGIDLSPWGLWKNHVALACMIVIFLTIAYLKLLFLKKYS

[2] = Single-dose pharmacokinetics, mouse; assay type: in vivo; settings: serum
ERβ = ERβ (Homo sapiens, UniProt Q92731); test: Reporter assay of gene transcription activity, ERβ; assay type: cell-based
Sequence of ERβ (Q92731 whole entry, species assumed): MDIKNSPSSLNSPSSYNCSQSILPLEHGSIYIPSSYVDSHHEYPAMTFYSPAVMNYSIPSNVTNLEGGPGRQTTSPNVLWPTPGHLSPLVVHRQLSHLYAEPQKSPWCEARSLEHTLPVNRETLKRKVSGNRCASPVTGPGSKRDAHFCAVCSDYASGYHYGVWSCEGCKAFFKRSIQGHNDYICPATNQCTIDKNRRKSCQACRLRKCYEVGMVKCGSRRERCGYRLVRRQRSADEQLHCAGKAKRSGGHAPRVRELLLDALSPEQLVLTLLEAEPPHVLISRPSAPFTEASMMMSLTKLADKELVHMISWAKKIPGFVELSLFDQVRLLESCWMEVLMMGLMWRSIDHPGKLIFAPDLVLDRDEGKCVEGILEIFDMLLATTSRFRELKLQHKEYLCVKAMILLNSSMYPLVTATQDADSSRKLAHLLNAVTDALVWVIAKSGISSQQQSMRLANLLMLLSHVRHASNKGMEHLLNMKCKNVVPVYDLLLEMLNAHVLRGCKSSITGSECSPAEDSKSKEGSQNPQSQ

[3] = test system: CAMA-1 ESR1 Asp538Gly cells; test: CAMA-1 cell proliferation, ESR1 Asp538Gly; assay type: cell-based; settings: Homo sapiens, CAMA-1, read-out: CAMA-1 cell prolif. pIC50 (converted)
[4] = In vivo mouse oral single dose PK
[5] = Plasma protein binding, rapid equilibrium dialysis, rat plasma; assay type: in vitro ADME
AR = molecular target: T2, AR (Homo sapiens, UniProt P10275); test: Reporter assay of gene transcription activity, AR; assay type: cell-based; settings: for IC50: reporter assay
T2 sequence (P10275 1-920): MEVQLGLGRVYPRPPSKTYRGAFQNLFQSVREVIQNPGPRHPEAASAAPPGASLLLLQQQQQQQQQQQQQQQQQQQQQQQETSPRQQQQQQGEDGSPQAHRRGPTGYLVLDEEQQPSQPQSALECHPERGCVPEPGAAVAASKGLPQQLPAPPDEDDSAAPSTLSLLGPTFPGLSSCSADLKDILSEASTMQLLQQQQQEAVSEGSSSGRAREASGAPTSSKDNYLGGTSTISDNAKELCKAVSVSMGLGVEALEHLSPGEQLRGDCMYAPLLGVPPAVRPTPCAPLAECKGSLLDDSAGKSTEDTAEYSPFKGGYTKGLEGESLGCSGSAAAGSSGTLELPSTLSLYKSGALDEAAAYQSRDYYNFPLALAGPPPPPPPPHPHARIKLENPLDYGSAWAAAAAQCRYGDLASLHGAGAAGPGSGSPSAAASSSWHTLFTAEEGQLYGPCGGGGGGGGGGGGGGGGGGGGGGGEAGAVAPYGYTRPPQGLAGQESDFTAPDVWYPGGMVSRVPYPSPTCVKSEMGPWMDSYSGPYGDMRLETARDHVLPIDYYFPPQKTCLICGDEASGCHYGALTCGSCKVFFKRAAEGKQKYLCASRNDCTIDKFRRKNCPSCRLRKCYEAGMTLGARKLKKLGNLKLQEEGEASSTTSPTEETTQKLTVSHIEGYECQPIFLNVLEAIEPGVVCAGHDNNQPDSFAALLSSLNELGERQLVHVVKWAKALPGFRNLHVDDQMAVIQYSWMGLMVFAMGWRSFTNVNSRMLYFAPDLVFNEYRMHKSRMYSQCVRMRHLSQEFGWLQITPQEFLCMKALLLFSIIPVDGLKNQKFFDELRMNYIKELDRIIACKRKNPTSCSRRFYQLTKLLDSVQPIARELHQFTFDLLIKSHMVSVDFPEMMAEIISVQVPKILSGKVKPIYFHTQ

ST941/C cells = test: ST941/C cell proliferation; assay type: cell-based; settings: read-out: ST941/C cell prolif. pIC50 (converted)
[6] = Human hepatocyte stability; assay type: in vitro ADME; settings: hepatocytes

Molecule CCCN1CC(Oc2ccc([C@@H]3c4[nH]c5ccccc5c4C[C@@H](C)N3CC(C)(C)F)cc2)C1 [compound 21, (1R,3R)-2-(2-Fluoro-2-methylpropyl)-3-methyl-1-(4-((1-propylazetidin-3-yl)oxy)phenyl)-2,3,4,9-tetrahydro-1H-pyrido[3,4-b]indole] has an AUC ([1]; iv) of 41300 ng·h/mL, a Cmax ([1]; iv) of 4060 ng/mL and a Vd ([1]; iv) of 16 L/kg. It also gave a clearance ([1]; iv) of 3.33 mL/min/kg, a half-life ([1]; iv) of 63 h and an AUC ([1]; po) of 33700 ng·h/mL. For the same molecule, the Cmax ([1]; po) was 1760 ng/mL, the Tmax ([1]; po) was 1.5 h and the bioavailability ([1]; po) was 89%. For the same molecule, the half-life ([1]; po) was 106 h, the IC50 (BCRP) was > 5000 nM and the AUC ([2]; iv, 0.5 mg/kg) was 161 ng·h/mL. The Cmax ([2]; iv, 0.5 mg/kg) was 29 ng/mL, the Vd ([2]; iv, 0.5 mg/kg) was 27 L/kg and the clearance ([2]; iv, 0.5 mg/kg) was 51.7 mL/min/kg. It also gave a half-life ([2]; iv, 0.5 mg/kg) of 7 h, an AUC ([2]; po, 5 mg/kg) of 1030 ng·h/mL and a Cmax ([2]; po, 5 mg/kg) of 91 ng/mL. It also gave a Tmax ([2]; po, 5 mg/kg) of 1 h, a bioavailability ([2]; po, 5 mg/kg) of 72% and a half-life ([2]; po, 5 mg/kg) of 10 h. The IC50 (ERβ; Erβ pIC50, agonist mode, agonist mode) was > 3160 nM, the IC50 (ERβ; Erβ pIC50, antag. mode, antag. mode) was 3.16 nM and the IC50 [3] was 6.31 nM. For the same molecule, the “total AUCinf” value ([4]; oral single dose) was 2477 ng·h/mL, the “free AUCinf” value ([4]; oral single dose, estimated based on the percent free fraction) was 1.5 ng·h/mL and the Cmax ([4]; plasma, po) was 121 ng/mL. For the same molecule, the half-life ([4]; plasma, po) was 18 h, the “Plasma free drug percentage” value [5] was 0.24% and the IC50 (AR; AR pIC50, agonist mode, agonist mode) was > 3160 nM. For the same molecule, the IC50 (AR; AR pIC50, antag. mode, antag. mode (agonist-induced activity)) was 1580 nM, the “agonist cross-reactivity on AR” value (AR; in words) was “no agonist cross-reactivity” and the IC50 (ST941/C cells) was 31.6 nM. It also gave a half-life [6] of 2.17 h and a hepatocyte CLint [6] of 10.7 µL/min/1e6 cells.
